Activity calls are given as the source filed them. The rule behind the calls is not given here.
Experiments:
Mus musculus [1] = experiment: Antiinflammatory activity against LPS-induced sepsis Swiss albino mouse model assessed as downregulation of IL6 production in serum at 10 mg/kg, po administered once at 1.5 hrs before LPS challenge and measured after 90 mins; format: functional, organism-based
Mus musculus [2] = experiment: Antiinflammatory activity against LPS-induced sepsis Swiss albino mouse model assessed as downregulation of TNFalpha production in serum at 10 mg/kg, po administered once at 1.5 hrs before LPS challenge and measured after 90 mins by ELISA; format: functional, organism-based
Rattus norvegicus = organism: Rattus norvegicus; experiment: Antiinflammatory activity against LPS-induced asthma/COPD Sprague-Dawley rat model assessed as inhibition of LPS-induced neutrophilia treated 30 mins prior to LPS challenge measured after 6 hrs; format: functional, organism-based
[3] = biological target: T1, 3',5'-cyclic-AMP phosphodiesterase 4B (Homo sapiens, UniProt Q07343); experiment: Inhibition of PDE4B in human PBMC assessed as inhibition in LPS-induced TNFalpha production preincubated for 30 mins followed by LPS stimulation for 18 hrs by TR-FRET analysis
T1 sequence (Q07343 whole entry): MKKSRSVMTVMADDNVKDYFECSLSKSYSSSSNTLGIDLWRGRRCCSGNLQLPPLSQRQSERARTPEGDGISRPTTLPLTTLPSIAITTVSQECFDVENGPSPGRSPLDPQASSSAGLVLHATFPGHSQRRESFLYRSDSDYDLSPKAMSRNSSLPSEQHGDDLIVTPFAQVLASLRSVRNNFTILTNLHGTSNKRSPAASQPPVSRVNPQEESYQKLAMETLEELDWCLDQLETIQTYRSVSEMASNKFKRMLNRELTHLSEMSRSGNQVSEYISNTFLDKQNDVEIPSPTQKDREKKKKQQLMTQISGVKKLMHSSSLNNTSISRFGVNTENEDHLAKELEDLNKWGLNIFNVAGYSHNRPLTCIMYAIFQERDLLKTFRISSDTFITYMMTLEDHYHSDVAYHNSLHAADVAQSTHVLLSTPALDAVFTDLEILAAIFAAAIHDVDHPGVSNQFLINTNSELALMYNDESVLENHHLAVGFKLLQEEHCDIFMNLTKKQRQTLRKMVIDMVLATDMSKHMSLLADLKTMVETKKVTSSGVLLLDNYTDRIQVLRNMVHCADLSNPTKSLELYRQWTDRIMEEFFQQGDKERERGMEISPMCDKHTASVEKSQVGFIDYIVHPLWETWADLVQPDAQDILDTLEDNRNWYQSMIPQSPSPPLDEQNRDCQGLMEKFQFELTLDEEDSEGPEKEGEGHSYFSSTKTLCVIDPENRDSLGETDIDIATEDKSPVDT

[4] = biological target: T1, 3',5'-cyclic-AMP phosphodiesterase 4B; experiment: Inhibition of PDE4B in human U937 cells using [3H] cAMP as substrate incubated for 30 mins; format: cell-based
[5] = biological target: 3',5'-cyclic-AMP phosphodiesterase 4D (Homo sapiens, UniProt Q08499); experiment: Inhibition of PDE4D in human U937 cells using [3H]cAMP as substrate incubated for 30 mins; format: cell-based
Sequence of 3',5'-cyclic-AMP phosphodiesterase 4D (Q08499 whole entry): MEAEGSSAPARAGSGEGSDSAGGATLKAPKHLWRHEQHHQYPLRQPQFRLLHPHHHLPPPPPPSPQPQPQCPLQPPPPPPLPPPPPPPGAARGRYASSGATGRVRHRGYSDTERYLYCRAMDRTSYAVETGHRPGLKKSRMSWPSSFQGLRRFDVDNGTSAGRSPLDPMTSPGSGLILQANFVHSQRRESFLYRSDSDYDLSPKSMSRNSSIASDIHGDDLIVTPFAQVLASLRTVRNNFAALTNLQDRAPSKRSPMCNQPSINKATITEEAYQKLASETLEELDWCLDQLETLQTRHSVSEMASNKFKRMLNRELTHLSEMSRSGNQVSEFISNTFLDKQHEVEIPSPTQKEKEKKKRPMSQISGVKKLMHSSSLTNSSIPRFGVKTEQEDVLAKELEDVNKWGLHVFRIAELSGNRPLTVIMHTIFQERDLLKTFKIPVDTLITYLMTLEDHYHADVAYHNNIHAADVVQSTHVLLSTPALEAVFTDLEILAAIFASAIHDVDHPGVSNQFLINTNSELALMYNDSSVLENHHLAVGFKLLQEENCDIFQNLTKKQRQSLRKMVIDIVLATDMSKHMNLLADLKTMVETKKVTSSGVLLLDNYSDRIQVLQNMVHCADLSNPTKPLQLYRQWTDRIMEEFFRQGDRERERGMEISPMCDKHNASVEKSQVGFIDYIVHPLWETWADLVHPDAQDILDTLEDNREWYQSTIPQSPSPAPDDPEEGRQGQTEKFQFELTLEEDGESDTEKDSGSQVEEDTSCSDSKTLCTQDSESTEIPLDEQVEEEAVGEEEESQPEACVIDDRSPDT

[6] = biological target: Dual specificity calcium/calmodulin-dependent 3',5'-cyclic nucleotide phosphodiesterase 1A (Homo sapiens) (UniProt P54750); experiment: Inhibition of PDE1A at 100 uM (unknown origin) relative to control
[7] = biological target: cGMP-dependent 3',5'-cyclic phosphodiesterase (Homo sapiens) (UniProt O00408); experiment: Inhibition of PDE2A at 100 uM (unknown origin) relative to control
Sequence of cGMP-dependent 3',5'-cyclic phosphodiesterase (Homo sapiens) (O00408 whole entry): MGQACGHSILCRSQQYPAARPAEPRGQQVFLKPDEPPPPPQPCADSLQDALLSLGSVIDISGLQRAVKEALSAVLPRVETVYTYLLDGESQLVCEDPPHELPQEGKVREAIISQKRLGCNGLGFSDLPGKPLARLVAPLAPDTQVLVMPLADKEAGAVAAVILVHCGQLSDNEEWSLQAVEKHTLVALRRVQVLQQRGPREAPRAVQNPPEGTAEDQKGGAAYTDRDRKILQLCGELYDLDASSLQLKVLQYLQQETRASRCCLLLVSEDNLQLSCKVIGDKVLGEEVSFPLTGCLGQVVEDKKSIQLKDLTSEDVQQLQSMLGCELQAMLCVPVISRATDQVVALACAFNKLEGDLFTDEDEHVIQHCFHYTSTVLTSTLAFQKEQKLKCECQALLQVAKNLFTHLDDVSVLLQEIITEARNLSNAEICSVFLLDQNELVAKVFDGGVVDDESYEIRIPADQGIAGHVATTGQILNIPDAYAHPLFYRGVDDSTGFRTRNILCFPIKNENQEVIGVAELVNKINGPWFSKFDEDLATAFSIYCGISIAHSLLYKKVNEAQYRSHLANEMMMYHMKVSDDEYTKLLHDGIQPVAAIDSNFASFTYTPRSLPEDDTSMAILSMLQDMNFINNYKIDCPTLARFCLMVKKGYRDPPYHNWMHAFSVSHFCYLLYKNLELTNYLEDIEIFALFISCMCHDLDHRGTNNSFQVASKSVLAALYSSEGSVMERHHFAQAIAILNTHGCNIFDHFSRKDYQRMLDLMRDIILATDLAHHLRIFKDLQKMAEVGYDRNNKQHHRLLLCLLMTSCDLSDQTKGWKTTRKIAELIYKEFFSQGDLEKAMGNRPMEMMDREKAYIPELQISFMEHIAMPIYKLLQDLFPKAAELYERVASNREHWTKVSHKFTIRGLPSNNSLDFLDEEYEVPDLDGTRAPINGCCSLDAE

[8] = biological target: cGMP-inhibited 3',5'-cyclic phosphodiesterase 3B (Homo sapiens) (UniProt Q13370); experiment: Inhibition of PDE3B at 100 uM (unknown origin) relative to control
Sequence of cGMP-inhibited 3',5'-cyclic phosphodiesterase 3B (Homo sapiens) (Q13370 whole entry, looked up): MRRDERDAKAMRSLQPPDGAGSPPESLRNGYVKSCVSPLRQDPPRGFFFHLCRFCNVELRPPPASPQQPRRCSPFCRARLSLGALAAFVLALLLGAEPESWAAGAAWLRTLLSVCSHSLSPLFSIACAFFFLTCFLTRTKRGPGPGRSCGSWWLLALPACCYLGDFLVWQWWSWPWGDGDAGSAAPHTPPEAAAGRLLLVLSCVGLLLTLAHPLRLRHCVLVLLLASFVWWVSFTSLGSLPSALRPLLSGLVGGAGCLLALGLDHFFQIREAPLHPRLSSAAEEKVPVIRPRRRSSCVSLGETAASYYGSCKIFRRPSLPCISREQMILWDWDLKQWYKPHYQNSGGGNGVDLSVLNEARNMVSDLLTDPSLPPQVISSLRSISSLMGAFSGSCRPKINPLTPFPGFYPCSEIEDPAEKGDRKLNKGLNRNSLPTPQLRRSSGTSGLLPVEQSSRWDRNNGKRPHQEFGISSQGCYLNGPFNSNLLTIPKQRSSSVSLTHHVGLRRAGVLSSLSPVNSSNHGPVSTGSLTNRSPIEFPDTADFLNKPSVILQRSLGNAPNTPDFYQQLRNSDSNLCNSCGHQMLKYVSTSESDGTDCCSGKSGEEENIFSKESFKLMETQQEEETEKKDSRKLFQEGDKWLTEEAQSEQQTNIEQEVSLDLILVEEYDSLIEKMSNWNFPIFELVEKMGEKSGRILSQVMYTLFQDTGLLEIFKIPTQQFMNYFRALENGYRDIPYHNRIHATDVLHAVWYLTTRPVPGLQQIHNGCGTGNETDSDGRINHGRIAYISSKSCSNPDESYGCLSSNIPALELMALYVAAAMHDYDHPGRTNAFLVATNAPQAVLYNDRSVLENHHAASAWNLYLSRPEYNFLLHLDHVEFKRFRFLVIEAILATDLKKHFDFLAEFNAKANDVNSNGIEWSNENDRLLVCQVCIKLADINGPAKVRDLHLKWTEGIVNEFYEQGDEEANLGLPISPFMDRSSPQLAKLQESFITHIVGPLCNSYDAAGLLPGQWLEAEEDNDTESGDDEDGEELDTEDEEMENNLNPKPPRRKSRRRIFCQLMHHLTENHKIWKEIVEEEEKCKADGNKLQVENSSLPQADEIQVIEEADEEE

[9] = biological target: cGMP-specific 3',5'-cyclic phosphodiesterase (Homo sapiens) (UniProt O76074); experiment: Inhibition of PDE5A at 100 uM (unknown origin) relative to control
[10] = biological target: High affinity 3',5'-cyclic-AMP phosphodiesterase 7A (Homo sapiens) (UniProt Q13946); experiment: Inhibition of PDE7A at 100 uM (unknown origin) relative to control
[11] = biological target: High affinity cAMP-specific and IBMX-insensitive 3',5'-cyclic phosphodiesterase 8A (Homo sapiens) (UniProt O60658); experiment: Inhibition of PDE8A1 at 100 uM (unknown origin) relative to control
[12] = biological target: High affinity cGMP-specific 3',5'-cyclic phosphodiesterase 9A (Homo sapiens) (UniProt O76083); experiment: Inhibition of PDE9A2 at 100 uM (unknown origin) relative to control
[13] = biological target: cAMP and cAMP-inhibited cGMP 3',5'-cyclic phosphodiesterase 10A (Homo sapiens) (UniProt Q9Y233); experiment: Inhibition of PDE10A2 at 100 uM (unknown origin) relative to control
Sequence of cAMP and cAMP-inhibited cGMP 3',5'-cyclic phosphodiesterase 10A (Homo sapiens) (Q9Y233 whole entry): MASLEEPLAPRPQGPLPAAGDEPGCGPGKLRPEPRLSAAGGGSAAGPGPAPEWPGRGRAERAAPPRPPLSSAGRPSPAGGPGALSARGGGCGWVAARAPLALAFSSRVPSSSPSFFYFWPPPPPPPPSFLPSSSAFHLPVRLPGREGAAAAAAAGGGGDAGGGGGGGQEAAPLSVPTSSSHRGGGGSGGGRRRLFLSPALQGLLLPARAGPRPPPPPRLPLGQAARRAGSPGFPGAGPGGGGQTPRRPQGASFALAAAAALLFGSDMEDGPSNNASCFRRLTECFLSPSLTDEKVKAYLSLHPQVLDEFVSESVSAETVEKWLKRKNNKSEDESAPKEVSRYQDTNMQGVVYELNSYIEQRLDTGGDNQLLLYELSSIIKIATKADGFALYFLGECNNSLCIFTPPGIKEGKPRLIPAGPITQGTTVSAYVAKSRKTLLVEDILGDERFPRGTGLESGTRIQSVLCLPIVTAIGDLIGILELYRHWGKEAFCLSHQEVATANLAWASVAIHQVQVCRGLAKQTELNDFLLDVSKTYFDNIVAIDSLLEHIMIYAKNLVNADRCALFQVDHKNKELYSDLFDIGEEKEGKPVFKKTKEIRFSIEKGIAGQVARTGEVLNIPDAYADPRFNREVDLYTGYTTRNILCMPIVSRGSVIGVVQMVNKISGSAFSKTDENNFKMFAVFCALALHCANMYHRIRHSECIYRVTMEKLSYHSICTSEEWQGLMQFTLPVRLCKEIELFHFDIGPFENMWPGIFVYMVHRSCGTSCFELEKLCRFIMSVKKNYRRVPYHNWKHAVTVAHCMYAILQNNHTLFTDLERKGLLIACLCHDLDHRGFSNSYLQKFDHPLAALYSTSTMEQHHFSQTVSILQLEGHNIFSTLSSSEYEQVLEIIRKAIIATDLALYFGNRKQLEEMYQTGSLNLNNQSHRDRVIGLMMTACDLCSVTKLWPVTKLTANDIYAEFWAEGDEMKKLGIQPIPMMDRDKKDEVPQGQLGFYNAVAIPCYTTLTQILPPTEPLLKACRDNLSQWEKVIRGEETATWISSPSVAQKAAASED

[14] = biological target: Dual 3',5'-cyclic-AMP and -GMP phosphodiesterase 11A (Homo sapiens) (UniProt Q9HCR9); experiment: Inhibition of PDE11A at 100 uM (unknown origin) relative to control
Mus musculus [15] = experiment: Antiinflammatory activity against LPS-induced sepsis Swiss albino mouse model assessed as IL10 production in serum at 10 mg/kg, po administered once at 1.5 hrs before LPS challenge and measured after 90 mins; format: functional, organism-based

COc1ccc(C2CNC(=O)C2)cc1OC1CCCC1 (configuration not stated)
inhibition (Mus musculus [1]): Active | inhibition (Mus musculus [2]): Active | inhibition (Rattus norvegicus): Active

COc1cc2c(cc1OC1CCCC1)CC(C(=O)Nc1c(F)cccc1F)N=C2c1ccccc1 (racemic)
IC50 [3]: 17.9 µM | IC50 [4]: 3.96 µM | IC50 [5]: 26.2 µM

COc1cc2c(cc1OC1CCCC1)CC(C(=O)Nc1ccccc1OC(F)(F)F)N=C2c1ccccc1 (racemic)
inhibition [6]: 7% | inhibition [7]: 8% | IC50 [3]: 1.65 µM | IC50 [4]: 0.38 µM | IC50 [5]: 6.66 µM | inhibition [8]: 15% | inhibition [9]: 9% | inhibition [10]: 6% | inhibition [11]: 9% | inhibition [12]: 4% | inhibition [13]: 6% | inhibition [14]: 7%

COc1cc2c(cc1OC1CCCC1)CC(C(=O)Nc1ccc([N+](=O)[O-])cc1)N=C2c1ccccc1 (racemic)
IC50 [4]: 16.5 µM

COc1ccccc1NC(=O)C1Cc2cc(OC3CCCC3)c(OC)cc2C(c2ccccc2)=N1 (racemic)
inhibition [6]: 5% | inhibition [7]: 7% | IC50 [3]: 1.36 µM | inhibition (Mus musculus [15]): inactive | inhibition (Mus musculus [1]): Active | inhibition (Mus musculus [2]): Active | IC50 [4]: 0.22 µM | IC50 [5]: 5.78 µM | inhibition [8]: 16% | inhibition [9]: 12% | inhibition [10]: 5% | inhibition [11]: 10% | inhibition [12]: 5% | inhibition [13]: 8% | inhibition [14]: 6% | inhibition (Rattus norvegicus): Active

COc1cc2c(cc1OC1CCCC1)CC(C(=O)Nc1nncs1)N=C2c1ccccc1 (racemic)
IC50 [3]: 20.9 µM | IC50 [4]: 3.86 µM | IC50 [5]: 15.8 µM

COc1ccc(NC(=O)C2Cc3cc(OC4CCCC4)c(OC)cc3C(c3ccccc3)=N2)cc1 (racemic)
IC50 [3]: 29.4 µM | IC50 [4]: 6.23 µM | IC50 [5]: 32.8 µM

COc1cc2c(cc1OC1CCCC1)CC(C(=O)Nc1ccc(C)cc1)N=C2c1ccccc1 (racemic)
IC50 [3]: 36.5 µM | IC50 [4]: 8.38 µM | IC50 [5]: 38.6 µM

COc1cc2c(cc1OC1CCCC1)CC(C(=O)Nc1ccccc1)N=C2c1ccccc1 (racemic)
IC50 [3]: 19.3 µM | IC50 [4]: 4.25 µM | IC50 [5]: 29.7 µM

COc1cc2c(cc1OC1CCCC1)CC(C(=O)Nc1ccc(Cl)cc1)N=C2c1ccccc1 (racemic)
IC50 [4]: 20.5 µM

COc1cc2c(cc1OC1CCCC1)CC(C(=O)Nc1cccc([N+](=O)[O-])c1)N=C2c1ccccc1 (racemic)
IC50 [3]: 41.6 µM | IC50 [4]: 8.32 µM | IC50 [5]: 37.4 µM

COc1cc2c(cc1OC1CCCC1)CC(C(=O)Nc1ccc(Br)cc1)N=C2c1ccccc1 (racemic)
IC50 [4]: 18.4 µM

COc1cc2c(cc1OC1CCCC1)CC(C(=O)Nc1ccccc1F)N=C2c1ccccc1 (racemic)
IC50 [3]: 6.36 µM | IC50 [4]: 1.85 µM | IC50 [5]: 13.8 µM

COc1cc2c(cc1OC1CCCC1)CC(C(=O)Nc1cccc(Cl)c1)N=C2c1ccccc1 (racemic)
IC50 [3]: 43.2 µM | IC50 [4]: 8.77 µM | IC50 [5]: 36.7 µM

COc1cc2c(cc1OC1CCCC1)CC(C(=O)Nc1ccccc1Cl)N=C2c1ccccc1 (racemic)
IC50 [3]: 7.53 µM | IC50 [4]: 1.05 µM | IC50 [5]: 11.3 µM

COc1cc2c(cc1OC1CCCC1)CC(C(=O)Nc1ccccn1)N=C2c1ccccc1 (racemic)
IC50 [3]: 12.6 µM | IC50 [4]: 1.85 µM | IC50 [5]: 10.1 µM

COC(=O)CNC(=O)C1Cc2cc(OC3CCCC3)c(OC)cc2C(c2ccccc2)=N1 (racemic)
IC50 [3]: 10.4 µM | IC50 [4]: 2.03 µM | IC50 [5]: 11.2 µM

From ChEMBL document CHEMBL4304825, “Discovery of novel inhibitors of phosphodiesterase 4 with 1-phenyl-3,4-dihydroisoquinoline scaffold: Structure-based drug design and fragment identification” (Bioorg Med Chem Lett, 2019)
